The values below come from patent publication US20230127047A1, “SELECTIVE GIP RECEPTOR AGONISTS COMPRISING A CHELATING MOIETY FOR IMAGING AND THERAPY PURPOSES” (ANTAROS MEDICAL AB, priority 2020, published 2023).

The term EC50 denotes the concentration at which the effect is half-maximal. Read a high EC50 as a need for much substance. As usually defined, the solubility is the concentration that dissolves in the medium under given conditions. A high value points to a readily soluble substance.

Where a SMILES comes first, the peptide text is derived from it. [ ]: non-standard residue; d: D form. The star is where a group is joined. DOTA = O=C(O)CN1CCN(CC(=O)O)CCN(CC(=O)*)CCN(CC(=O)O)CC1; Aib = CC(C)(N)C(=O)O

For data set [1], the target named is T1, glucagon receptor (hGCGR) (Homo sapiens, UniProt P47871).
T1 construct: expressed in transfected cells
T1 sequence (P47871 26-477): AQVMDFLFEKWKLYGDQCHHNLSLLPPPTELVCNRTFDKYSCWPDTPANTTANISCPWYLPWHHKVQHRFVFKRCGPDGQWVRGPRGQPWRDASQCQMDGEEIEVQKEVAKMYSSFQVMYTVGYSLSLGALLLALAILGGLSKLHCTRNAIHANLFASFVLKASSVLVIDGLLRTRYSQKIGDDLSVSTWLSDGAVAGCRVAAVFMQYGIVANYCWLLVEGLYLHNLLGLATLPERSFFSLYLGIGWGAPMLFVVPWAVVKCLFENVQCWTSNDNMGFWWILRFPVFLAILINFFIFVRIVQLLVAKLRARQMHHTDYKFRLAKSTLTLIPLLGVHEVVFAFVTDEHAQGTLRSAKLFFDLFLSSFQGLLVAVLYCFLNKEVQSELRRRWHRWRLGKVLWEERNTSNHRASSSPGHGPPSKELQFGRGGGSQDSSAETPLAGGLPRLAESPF
The experiment in a line: cAMP response (HTRF) in PSC-HEK-293 cells expressing human glucagon receptor. Type of data set: cell-based. The procedure:
(§1) Each vial contained 1.8 ml cells. The vials were slowly frozen to −80° C. in isopropanol, and then transferred in liquid nitrogen for storage.
(§2) Prior to their use, frozen cells were thawed quickly at 37° C. and washed (5 min at 900 rpm) with 20 ml cell buffer (lx HBSS; 20 mM HEPES, with 0.1% BSA).
(§3) For measurement of cAMP generation, 5 μl cells (final 5000 cells/well) and 5 μl of test compound were added to a 384-well plate, followed by incubation for 30 min at room temperature.
(§4) The cAMP generated was determined using a kit from Cisbio Corp. based on HTRF (Homogenous Time Resolved Fluorescence). The cAMP assay was performed according to manufacturer's instructions (Cisbio).
(§5) cAMP content of cells was determined using a kit from Cisbio Corp. (cat. no. 62AM4PEC) based on HTRF (Homogenous Time Resolved Fluorescence). […] Medium was then removed and cells washed with PBS lacking calcium and magnesium, followed by proteinase treatment with accutase (Sigma-Aldrich cat. no. A6964). Detached cells were washed and resuspended in assay buffer (1×HBSS; 20 mM HEPES, 0.1% BSA, 2 mM IBMX) and cellular density determined. They were then diluted to 400000 cells/ml and 25 μl-aliquots dispensed into the wells of 96-well plates. For measurement, 25 μl of test compound in assay buffer was added to the wells, followed by incubation for 30 minutes at room temperature.

Data set [2] addresses human GLP-1 receptor (hGLP-1R) (Homo sapiens, UniProt P43220). The experiment in a line: cAMP response (HTRF) in PSC-HEK-293 cells expressing human GLP-1 receptor. The class given is cell-based. As to the method: as §1, §2, §3, §4, §5
In general terms: TR-FRET usually uses a lanthanide donor and a delayed reading to cut background.

Data set [3] in a line: Chemical stability testing of peptides in solution (UHPLC). The class given is physicochemical. The settings on record: 0.5 mg/mL, pH 7.3 TRIS buffer. The procedure:
For chemical stability testing, the target concentration was 0.5 mg/mL pure compound in a pH 7.3 TRIS buffer (50 mM) containing m-cresol (30 mM), sodium chloride (85 mM) and polysorbate 20 (8 μM). The solution was stored for 7 days at 4° C., or 40° C. After that time, the solution was analysed by UHPLC (Analytical UHPLC Method D).
The “% Purity” after 7 days is defined by the % Relative purity at day 7 in relation to the % Relative purity at t0 following the equation
% Purity=[(% Relative purity t7)×100)]/% Relative purity t0
The % Relative purity at t0 was calculated by dividing the peak area of the peptide at t0 by the sum of all peak areas at t0 following the equation
% Relative purity t0=[(peak area t0)×100]/sum of all peak areas t0
Likewise, the % relative purity t7 was calculated by dividing the peak are of the peptide at t7 by the sum of all peak areas at t7 following the equation
% Relative purity t7=[(peak area t7)×100]/sum of all peak areas t7
Chemical stability of peptidic compounds was assessed as described in Methods.

Sequence of human GLP-1 receptor (hGLP-1R) (P43220 24-463): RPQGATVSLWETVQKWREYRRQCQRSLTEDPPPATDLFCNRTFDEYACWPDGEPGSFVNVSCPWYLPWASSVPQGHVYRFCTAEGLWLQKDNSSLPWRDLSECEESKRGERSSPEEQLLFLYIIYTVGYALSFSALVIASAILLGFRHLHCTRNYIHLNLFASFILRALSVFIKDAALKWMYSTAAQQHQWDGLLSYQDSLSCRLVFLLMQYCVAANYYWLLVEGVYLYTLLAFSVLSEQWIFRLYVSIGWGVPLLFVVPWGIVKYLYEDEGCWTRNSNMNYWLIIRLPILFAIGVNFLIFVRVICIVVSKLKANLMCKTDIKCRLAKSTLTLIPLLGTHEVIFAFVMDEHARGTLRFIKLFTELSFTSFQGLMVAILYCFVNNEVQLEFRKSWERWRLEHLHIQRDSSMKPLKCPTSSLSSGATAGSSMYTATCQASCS
Description for physchem: Depending on the presence of remaining material as judged by visual inspection the compounds were determined to be soluble at the target concentration in the respective buffer system.
Solubility buffer system A) 100 mM Phosphate buffer pH 7.4
Solubility buffer system B) Acetate buffer pH 4.5
Solubility buffer system C) 100 mM Histidine buffer pH 5.5
Solubility buffer system D) 10 mM Glycine pH 2.5
Solubility buffer system E) 10 mM Glycine pH 2.0
Solubility buffer system F) 50 mM TRIS buffer, 30 mM m-cresol, 85 mM sodium chloride, 8 μM polysorbate 20 pH 7.3
Peptide samples were prepared in the respective solubility buffer system and solubility was assessed as described in Methods.

Turning to `CC[C@H](C)[C@H](NC(=O)[C@H](CO)NC(=O)[C@H](CC(C)C)NC(=O)[C@H](CC(=O)O)NC(=O)[C@H](CO)NC(=O)[C@@H](NC(=O)[C@H](Cc1ccccc1)NC(=O)[C@@H](NC(=O)CNC(=O)[C@H](CCC(=O)O)NC(=O)C(C)(C)NC(=O)[C@@H](N)Cc1ccc(O)cc1)[C@@H](C)O)[C@@H](C)CC)C(=O)N[C@@H](C)C(=O)N[C@@H](CC(C)C)C(=O)N[C@@H](CC(=O)O)C(=O)N[C@@H](CCCNC(=N)N)C(=O)N[C@H](C(=O)N[C@@H](Cc1c[nH]cn1)C(=O)N[C@@H](CCC(N)=O)C(=O)N[C@@H](CCC(=O)O)C(=O)N[C@@H](CCC(=O)O)C(=O)N[C@@H](Cc1ccccc1)C(=O)N[C@H](C(=O)N[C@@H](CCC(=O)O)C(=O)N[C@@H](Cc1c[nH]c2ccccc12)C(=O)N[C@@H](CC(C)C)C(=O)N[C@@H](CC(C)C)C(=O)N[C@@H](C)C(=O)NCC(=O)NCC(=O)N[C@@H](CCCCNC(=O)CN1CCN(CC(=O)O)CCN(CC(=O)O)CCN(CC(=O)O)CC1)C(N)=O)[C@@H](C)CC)[C@@H](C)CC` [SEQ ID NO: 3, Y-Aib-EGTFISDLSIALDRIHQEEFIEWLLAGGK(DOTA)-NH2] (H-Y[Aib]EGTFISDLSIALDRIHQEEFIEWLLAGGK(DOTA)-NH2; N-terminus assumed), the concentration for a half-maximal effect (EC50) in data set [1] and in data set [2] was over 10 nM in each case. Moreover, the “% Purity after 7 days” value in data set [3] (4° C.) and in data set [3] (40° C.) was over 97% in each case. The solubility in the data set “physchem” (10 mM glycine buffer, pH 2) is at least 500 µg/mL; in the data set “physchem” (10 mM glycine buffer, pH 2.5), at least 500 µg/mL; in the data set “physchem” (100 mM histidine buffer, pH 5.5), at least 500 µg/mL; in the data set “physchem” (100 mM phosphate buffer, pH 7.4), at least 500 µg/mL; in “physchem” (acetate buffer, pH 4.5), under 500 µg/mL; in “physchem” (pH 7.3), at least 500 µg/mL.
